Laboratory results from publication PMC4774911, “Biochemical Screening of Five Protein Kinases from Plasmodium falciparum against 14,000 Cell-Active Compounds” (PLoS ONE, 2016).
Values joined by “and” are separate entries in the source; they are usually repeats but may differ in a detail not shown here. Equal values may be shown once.

Key:
Assay in all cases: biochemical
Set-up in all cases: endogenous in cells; host or cells: K562 cell extract; species or system K562 (extract); replicate k of n = 2 (each experiment ID is one independent experiment; two experiment IDs per compound)
Conditions in all cases: read-out: KDapp
[1] = target: T1, IRAK4 (Homo sapiens, UniProt Q9NWZ3)
T1 sequence (Q9NWZ3 1-460): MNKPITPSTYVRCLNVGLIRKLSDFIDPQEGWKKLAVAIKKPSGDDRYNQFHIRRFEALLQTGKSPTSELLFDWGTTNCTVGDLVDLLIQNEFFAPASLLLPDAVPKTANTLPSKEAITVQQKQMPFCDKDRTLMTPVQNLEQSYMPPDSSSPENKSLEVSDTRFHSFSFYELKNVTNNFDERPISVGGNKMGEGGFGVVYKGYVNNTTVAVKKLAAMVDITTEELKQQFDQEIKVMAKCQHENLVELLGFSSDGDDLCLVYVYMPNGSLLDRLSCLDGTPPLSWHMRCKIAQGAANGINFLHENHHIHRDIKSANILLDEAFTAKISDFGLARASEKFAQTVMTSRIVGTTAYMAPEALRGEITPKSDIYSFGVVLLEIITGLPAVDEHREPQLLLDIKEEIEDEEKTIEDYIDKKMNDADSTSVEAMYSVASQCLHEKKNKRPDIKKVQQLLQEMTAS

[2] = target: T2, TTK (Homo sapiens, UniProt P33981)
T2 sequence (P33981 1-857): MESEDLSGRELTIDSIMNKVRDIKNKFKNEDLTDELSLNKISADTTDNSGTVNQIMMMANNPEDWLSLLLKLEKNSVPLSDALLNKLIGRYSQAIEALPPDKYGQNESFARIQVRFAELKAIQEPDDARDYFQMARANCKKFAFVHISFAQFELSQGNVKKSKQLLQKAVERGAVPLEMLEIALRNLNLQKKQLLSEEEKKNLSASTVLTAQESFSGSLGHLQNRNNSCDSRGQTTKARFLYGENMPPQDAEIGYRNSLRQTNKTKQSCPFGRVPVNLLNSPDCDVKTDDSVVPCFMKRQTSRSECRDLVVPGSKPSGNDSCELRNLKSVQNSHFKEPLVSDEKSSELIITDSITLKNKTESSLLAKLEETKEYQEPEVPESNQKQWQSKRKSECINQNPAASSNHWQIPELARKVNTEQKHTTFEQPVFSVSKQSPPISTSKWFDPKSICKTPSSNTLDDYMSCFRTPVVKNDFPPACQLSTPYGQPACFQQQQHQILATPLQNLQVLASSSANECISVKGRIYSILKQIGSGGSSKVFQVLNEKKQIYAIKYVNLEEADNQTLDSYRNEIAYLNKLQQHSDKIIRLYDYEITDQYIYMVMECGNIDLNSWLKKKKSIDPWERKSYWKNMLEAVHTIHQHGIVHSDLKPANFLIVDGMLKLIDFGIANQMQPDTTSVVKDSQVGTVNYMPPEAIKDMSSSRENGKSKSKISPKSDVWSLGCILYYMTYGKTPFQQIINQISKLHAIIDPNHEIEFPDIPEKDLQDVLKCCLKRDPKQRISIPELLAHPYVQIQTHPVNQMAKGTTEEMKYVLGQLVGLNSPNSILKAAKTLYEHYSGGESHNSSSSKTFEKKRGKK

[3] = target: PIM2 (Homo sapiens, UniProt Q9P1W9)
[4] = target: T3, NEK3 (Homo sapiens, UniProt P51956)
T3 sequence (P51956 1-506): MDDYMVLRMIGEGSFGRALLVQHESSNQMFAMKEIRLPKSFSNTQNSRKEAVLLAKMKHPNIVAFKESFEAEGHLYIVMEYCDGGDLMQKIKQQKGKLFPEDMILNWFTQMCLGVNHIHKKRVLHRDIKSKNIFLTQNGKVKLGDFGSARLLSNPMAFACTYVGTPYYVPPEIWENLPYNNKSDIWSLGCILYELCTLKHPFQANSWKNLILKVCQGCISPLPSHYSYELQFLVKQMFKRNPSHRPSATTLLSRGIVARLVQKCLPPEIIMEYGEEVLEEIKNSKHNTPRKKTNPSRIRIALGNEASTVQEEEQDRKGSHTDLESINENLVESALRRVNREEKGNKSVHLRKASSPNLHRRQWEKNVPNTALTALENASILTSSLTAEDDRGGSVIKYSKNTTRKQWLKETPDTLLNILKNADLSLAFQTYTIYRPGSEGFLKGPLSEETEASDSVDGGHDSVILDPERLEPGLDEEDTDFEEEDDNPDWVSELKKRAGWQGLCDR

[5] = target: TNK2 (Homo sapiens, UniProt Q07912)
TNK2, sequence (Q07912 whole entry): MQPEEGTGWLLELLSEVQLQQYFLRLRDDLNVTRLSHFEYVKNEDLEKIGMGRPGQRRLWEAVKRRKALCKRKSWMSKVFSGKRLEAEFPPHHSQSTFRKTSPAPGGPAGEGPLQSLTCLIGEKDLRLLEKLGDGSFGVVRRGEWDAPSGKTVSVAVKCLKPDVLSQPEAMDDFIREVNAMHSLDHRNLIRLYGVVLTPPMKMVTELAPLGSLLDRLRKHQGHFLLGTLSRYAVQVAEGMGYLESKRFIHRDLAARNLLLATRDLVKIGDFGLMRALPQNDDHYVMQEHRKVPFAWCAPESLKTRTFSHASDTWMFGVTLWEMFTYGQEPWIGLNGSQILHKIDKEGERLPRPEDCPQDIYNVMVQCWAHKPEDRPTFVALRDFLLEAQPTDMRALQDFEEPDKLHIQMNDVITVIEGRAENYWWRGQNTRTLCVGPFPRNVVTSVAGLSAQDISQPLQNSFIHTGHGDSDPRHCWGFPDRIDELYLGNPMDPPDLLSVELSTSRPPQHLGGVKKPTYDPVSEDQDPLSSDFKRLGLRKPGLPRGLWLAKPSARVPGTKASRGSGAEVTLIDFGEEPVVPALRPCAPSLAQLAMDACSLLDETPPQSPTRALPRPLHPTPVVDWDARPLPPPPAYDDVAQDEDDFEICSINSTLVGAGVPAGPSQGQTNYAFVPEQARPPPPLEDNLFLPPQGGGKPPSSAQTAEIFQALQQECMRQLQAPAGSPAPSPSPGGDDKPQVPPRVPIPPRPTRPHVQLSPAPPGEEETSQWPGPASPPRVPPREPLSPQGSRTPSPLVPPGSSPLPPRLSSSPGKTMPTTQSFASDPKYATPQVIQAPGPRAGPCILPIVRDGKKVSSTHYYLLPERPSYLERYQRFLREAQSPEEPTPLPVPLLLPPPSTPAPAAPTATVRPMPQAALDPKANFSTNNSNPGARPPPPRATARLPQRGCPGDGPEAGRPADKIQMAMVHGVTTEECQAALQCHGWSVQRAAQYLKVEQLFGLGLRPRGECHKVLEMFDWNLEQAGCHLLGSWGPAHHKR

PIM2, sequence (Q9P1W9 whole entry): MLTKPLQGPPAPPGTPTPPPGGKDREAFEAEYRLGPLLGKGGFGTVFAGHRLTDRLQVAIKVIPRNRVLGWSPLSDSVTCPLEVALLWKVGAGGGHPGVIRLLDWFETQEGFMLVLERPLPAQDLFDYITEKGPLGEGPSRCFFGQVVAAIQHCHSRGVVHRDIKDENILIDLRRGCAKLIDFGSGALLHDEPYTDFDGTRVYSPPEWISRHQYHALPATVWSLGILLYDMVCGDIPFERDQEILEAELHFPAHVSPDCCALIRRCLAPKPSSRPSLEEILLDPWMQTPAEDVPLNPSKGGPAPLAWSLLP

CN1CCN(c2ccc(Nc3ncc(C#N)c(Nc4ccccc4C(N)=O)n3)cc2)CC1.Cl [TCMDC-134116]
Kd [1]: 0.0964 µM | Kd [2]: 0.439 µM and 0.357 µM | Kd [3]: 2.97 µM | Kd [4]: 0.717 µM | Kd [5]: 0.0735 µM
